Calls of active or inactive are those of the source. The calls are words filed in the database; no cut-off is given here.
Columns and labels:
Format in all cases: functional
[1] = Inhibition of AAPH-induced DNA oxidation by TBARS assay
[2] = Inhibition of Cu2+/GSH-induced DNA oxidation at 0.2 mM by TBARS assay
[3] = Antioxidant activity assessed as hydroxyl radical-induced DNA oxidation at 0.2 mM after 30 min by TBARS assay (reference value: 100%)

Compound | inhibition [1] | inhibition [2] | Activity [3] [%]
C=C(C)C(C)c1cc(/C=C/C(=O)c2ccc(O)cc2O)cc(OC)c1O (centres undefined) | Active | Active | 106
C=C(C)C(C)c1cc(/C=C/C(=O)c2c(O)cc(O)cc2O)cc(OC)c1O (centres undefined) | Active | Active | 98.2
C=C(C)C(C)c1cc(/C=C/C(=O)c2ccc(O)cc2)cc(OC)c1O (centres undefined) | Active | Active | 91.3

Source: ChEMBL document CHEMBL3045706, “Synthesis of licochalcones and inhibition effects on radical-induced oxidation of DNA” (Med Chem Res, 2013)
